According to US8877786B2, “Substituted carbamoylmethylamino acetic acid derivatives as novel NEP inhibitors” (Novartis AG, priority 2009, dated 2014):

Target: recombinant human neutral endopeptidase (NEP, EC 3.4.24.11) (Homo sapiens (Human), UniProt P08473)
Experiment: in vitro inhibition of recombinant human neutral endopeptidase (fluorescence lifetime assay)
Assay type: biochemical
Conditions: recombinant human NEP 7 pM, 1 hour pre-incubation at room temperature, pH 7.4, substrate Cys(PT14)-Arg-Arg-Leu-Trp-OH 0.7 μM, FLT read after 1 hour
Text: The activity of a compound according to the present invention can be assessed by the following in vitro & in vivo methods and/or by the following in vitro & in vivo methods well-described in the art. See A fluorescence lifetime-based assay for protease inhibitor profiling on human kallikrein 7 Doering K, Meder G, Hinnenberger M, Woelcke J, Mayr L M, Hassiepen U Biomol Screen.

Chain of recombinant human neutral endopeptidase (NEP, EC 3.4.24.11) (P08473 whole entry): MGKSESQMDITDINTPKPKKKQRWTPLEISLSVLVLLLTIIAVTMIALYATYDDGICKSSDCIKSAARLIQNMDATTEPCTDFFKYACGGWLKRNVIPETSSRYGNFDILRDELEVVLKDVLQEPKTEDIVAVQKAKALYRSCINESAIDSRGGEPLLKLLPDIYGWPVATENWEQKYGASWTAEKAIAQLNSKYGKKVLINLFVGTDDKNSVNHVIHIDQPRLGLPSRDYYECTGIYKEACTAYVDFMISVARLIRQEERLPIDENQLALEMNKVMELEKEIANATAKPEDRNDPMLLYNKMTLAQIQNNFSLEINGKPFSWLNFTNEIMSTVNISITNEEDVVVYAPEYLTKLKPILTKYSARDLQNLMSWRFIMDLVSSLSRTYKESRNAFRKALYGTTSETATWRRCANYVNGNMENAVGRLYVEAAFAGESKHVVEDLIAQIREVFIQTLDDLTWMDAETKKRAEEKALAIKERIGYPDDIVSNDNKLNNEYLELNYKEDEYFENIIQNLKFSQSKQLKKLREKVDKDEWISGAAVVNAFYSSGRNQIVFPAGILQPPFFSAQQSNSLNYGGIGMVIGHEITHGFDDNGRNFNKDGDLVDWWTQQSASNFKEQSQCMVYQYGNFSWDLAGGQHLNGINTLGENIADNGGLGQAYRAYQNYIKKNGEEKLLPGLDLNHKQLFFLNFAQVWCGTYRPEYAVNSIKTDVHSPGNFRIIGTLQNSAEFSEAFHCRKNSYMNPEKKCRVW

Compound	IC50 [nM]
C[C@H](N[C@@H](Cc1ccc(-c2cccc(Cl)c2)cc1)C(=O)Nc1nnn[nH]1)C(=O)O [Example 3-1, (S)-2-[(S)-2-(3′-chloro-biphenyl-4-yl)-1-(1H-tetrazol-5-ylcarbamoyl)-ethylamino]-propionic acid]	0.09
C[C@H](N[C@@H](Cc1ccc(-c2cc(Cl)ccc2Cl)cc1)C(=O)Nc1nnn[nH]1)C(=O)O [Example 3-2, (S)-2-[(S)-2-(2′,5′-dichloro-biphenyl-4-yl)-1-(1H-tetrazol-5-ylcarbamoyl)-ethylamino]-propionic acid]	0.3
C[C@H](N[C@@H](Cc1ccc(-c2ccccc2)cc1)C(=O)Nc1nnn[nH]1)C(=O)O [Example 3-4, (S)-2-[(S)-2-Biphenyl-4-yl-1-(1H-tetrazol-5-ylcarbamoyl)-ethylamino]-propionic acid]	11
C[C@H](N[C@@H](Cc1ccc(-c2cccc(Cl)c2)cc1)C(=O)Nc1cc(O)no1)C(=O)O [Example 3-7, (S)-2-[(S)-2-(3′-Chloro-biphenyl-4-yl)-1-(3-hydroxy-isoxazol-5-ylcarbamoyl)-ethylamino]-propionic acid]	2.4
O=C(O)[C@H](CCc1ccccc1)N[C@@H](Cc1ccc(-c2cccc(Cl)c2)cc1)C(=O)Nc1nnn[nH]1 [Example 3-12, (S)-2-[(S)-2-(3′-Chloro-biphenyl-4-yl)-1-(1H-tetrazol-5-ylcarbamoyl)-ethylamino]-4-phenyl-butyric acid]	0.2
